Measured values from ChEMBL document CHEMBL1138324, “Synthesis and nicotinic acetylcholine receptor binding properties of bridged and fused ring analogues of epibatidine” (J Med Chem, 2007).

Legend:
Mus musculus [1] = assay: Inhibition of nicotine-induced antinociceptive effect in sc dosed mouse by tail flick test; format: functional
Mus musculus [2] = assay: Inhibition of nicotine-induced antinociceptive effect in sc dosed mouse by hot plate test; format: functional
Mus musculus [3] = assay: Inhibition of nicotine-induced hypothermia in mouse assessed as change in body temperature at 5000 ug/kg, sc; format: functional; set-up: scale not given: the % may be the effect or the level left
Mus musculus [4] = assay: Antinociceptive effect in mouse at 10 mg/kg by tail flick test; format: functional
Mus musculus [5] = assay: Antinociceptive effect in mouse at 10 mg/kg by hot plate test; format: functional
Mus musculus [6] = assay: Effect on hypothermia in mouse assessed as change in body temperature at 10 mg/kg; format: functional
[7] = target: T1, Neuronal acetylcholine receptor; alpha4/beta2 (Homo sapiens, UniProt P17787+P43681); assay: Displacement of [3H]epibatidine from alpha-4-beta-2 nAChR; format: protein-complex assay
Mus musculus [8] = species: Mus musculus; assay: Antinociceptive effect in mouse by tail flick test; format: functional
Mus musculus [9] = species: Mus musculus; assay: Antinociceptive effect in mouse by hot plate test; format: functional
Mus musculus [10] = species: Mus musculus; assay: Effect on hypothermia in mouse assessed as change in body temperature; format: functional
Mus musculus [11] = assay: Inhibition of nicotine-induced hypothermia in mouse assessed as change in body temperature at 0.5 ug/kg, sc; format: functional; set-up: scale not given: the % may be the effect or the level left
Mus musculus [12] = assay: Inhibition of nicotine-induced antinociceptive effect in mouse at 0.5 ug/kg, sc by hot plate test; format: functional
[13] = target: Neuronal acetylcholine receptor subunit alpha-7 (Homo sapiens) (UniProt P36544); assay: Displacement of [125I]iodoMLA from alpha-7 nAChR at 50 nM
[14] = target: T1, Neuronal acetylcholine receptor; alpha4/beta2; assay: Displacement of [3H]epibatidine from alpha-4-beta-2 nAChR at 31.6 uM; format: protein-complex assay
Mus musculus [15] = assay: Inhibition of nicotine-induced antinociceptive effect in mouse at 15000 ug/kg, sc by hot plate test; format: functional
Mus musculus [16] = assay: Inhibition of nicotine-induced hypothermia in mouse assessed as change in body temperature at 15000 ug/kg, sc; format: functional; set-up: scale not given: the % may be the effect or the level left

Sequence of Neuronal acetylcholine receptor subunit alpha-7 (Homo sapiens) (P36544 whole entry): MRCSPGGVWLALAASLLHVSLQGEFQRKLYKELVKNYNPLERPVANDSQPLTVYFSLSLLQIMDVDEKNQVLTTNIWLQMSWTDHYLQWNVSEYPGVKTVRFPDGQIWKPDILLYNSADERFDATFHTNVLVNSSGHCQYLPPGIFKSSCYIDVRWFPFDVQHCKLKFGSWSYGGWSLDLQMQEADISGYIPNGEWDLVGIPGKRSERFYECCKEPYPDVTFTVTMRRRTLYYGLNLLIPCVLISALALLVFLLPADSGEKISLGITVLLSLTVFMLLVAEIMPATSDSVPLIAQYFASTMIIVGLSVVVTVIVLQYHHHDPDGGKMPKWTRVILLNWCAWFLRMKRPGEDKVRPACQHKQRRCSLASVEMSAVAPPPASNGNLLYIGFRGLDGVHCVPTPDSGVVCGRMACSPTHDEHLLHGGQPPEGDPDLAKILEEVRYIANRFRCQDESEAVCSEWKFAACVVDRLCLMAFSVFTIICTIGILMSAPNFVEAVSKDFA
T1 sequence (P17787 whole entry): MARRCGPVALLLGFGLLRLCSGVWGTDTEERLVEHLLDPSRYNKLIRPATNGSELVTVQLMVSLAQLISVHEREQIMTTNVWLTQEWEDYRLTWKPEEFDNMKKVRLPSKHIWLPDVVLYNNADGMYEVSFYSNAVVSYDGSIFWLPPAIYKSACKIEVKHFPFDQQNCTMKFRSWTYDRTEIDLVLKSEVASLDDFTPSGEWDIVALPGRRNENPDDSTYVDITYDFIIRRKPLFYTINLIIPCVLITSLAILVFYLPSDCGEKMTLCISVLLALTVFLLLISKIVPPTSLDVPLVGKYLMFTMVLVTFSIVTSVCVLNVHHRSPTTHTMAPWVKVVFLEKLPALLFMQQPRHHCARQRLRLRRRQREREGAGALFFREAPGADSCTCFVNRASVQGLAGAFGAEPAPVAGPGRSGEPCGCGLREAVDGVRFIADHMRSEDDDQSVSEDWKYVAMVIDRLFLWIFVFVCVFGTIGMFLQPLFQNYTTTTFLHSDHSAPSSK
T1 sequence (P43681 whole entry): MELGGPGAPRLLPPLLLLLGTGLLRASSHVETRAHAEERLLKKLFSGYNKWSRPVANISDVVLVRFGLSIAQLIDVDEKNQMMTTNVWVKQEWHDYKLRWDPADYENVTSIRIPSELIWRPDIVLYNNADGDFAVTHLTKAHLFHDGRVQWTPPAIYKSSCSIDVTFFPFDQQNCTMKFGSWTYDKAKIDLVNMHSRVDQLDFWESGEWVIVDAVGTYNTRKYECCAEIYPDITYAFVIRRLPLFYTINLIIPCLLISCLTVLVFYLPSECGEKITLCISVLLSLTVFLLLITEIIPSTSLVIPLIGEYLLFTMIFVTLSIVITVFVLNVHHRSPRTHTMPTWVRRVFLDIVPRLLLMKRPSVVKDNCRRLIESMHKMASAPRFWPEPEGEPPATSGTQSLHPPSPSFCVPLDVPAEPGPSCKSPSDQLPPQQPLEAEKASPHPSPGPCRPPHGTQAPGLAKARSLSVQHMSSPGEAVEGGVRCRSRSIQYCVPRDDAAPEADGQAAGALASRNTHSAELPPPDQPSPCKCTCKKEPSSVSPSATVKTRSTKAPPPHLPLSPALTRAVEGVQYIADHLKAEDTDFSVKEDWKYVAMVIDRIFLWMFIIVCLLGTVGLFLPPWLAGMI

| SMILES | Activity (Mus musculus [4]) | Activity (Mus musculus [5]) | Activity (Mus musculus [6]) | Ki [7] | Activity [13] | further results |
| --- | --- | --- | --- | --- | --- | --- |
| Cc1cc(Cl)ncc1C1CC2CCC1N2 (stereo not drawn) | 4% | 20% | 0% |  |  | AD50 (Mus musculus [1]): 400 µg/kg; AD50 (Mus musculus [2]): 1200 µg/kg; Activity (Mus musculus [3]): 0% |
| Nc1cc2c(cn1)C1CC3CCC1N3C2 (stereo not drawn) | 2% | 16% | 0% | 12400 nM |  |  |
| Nc1ccc2c(n1)CN1C3CCC1C2C3 (stereo not drawn) | 4% | 10% | 0% | 7370 nM |  |  |
| Clc1cc2c(cn1)C1CC3CCC1N3C2 (stereo not drawn) | 2% | 18% | 0% | 3330 nM |  |  |
| CN1C2CCC1C(c1ccc(Cl)nc1)C2 (stereo not drawn) |  |  |  | 0.038 nM |  | ED50 (Mus musculus [8]): 4.4 µg/kg; ED50 (Mus musculus [9]): 3 µg/kg; ED50 (Mus musculus [10]): 3 µg/kg; AD50 (Mus musculus [1]): 0.048 µg/kg; Activity (Mus musculus [11]): 0%; inhibition in vivo at 0.0005 mg/kg (Mus musculus [12]): 23% |
| Clc1ccc(C2CC3NC2c2ccccc23)cn1 (stereo not drawn) |  |  |  | 65.2 nM | 0% |  |
| c1cc2c(cn1)C1CCC2N1 (stereo not drawn) |  |  |  |  | 0% | Activity [14]: < 15% |
| C1=CC2NC1c1ccncc12 (stereo not drawn) |  |  |  |  | 0% | Activity [14]: < 15% |
| Fc1ncc(C2CC3NC2c2ccccc23)cc1-c1ccccc1 (stereo not drawn) |  |  |  | 128 nM | 0% |  |
| c1cnc2c(c1)C1CCC2N1 (stereo not drawn) |  |  |  |  | 0% | Activity [14]: < 15% |
| Clc1ccc([C@@H]2C[C@H]3CC[C@@H]2N3)cn1 [(+)-EPIBATIDINE] |  |  |  |  |  | ED50 (Mus musculus [8]): 6 µg/kg; ED50 (Mus musculus [9]): 4 µg/kg; ED50 (Mus musculus [10]): 4 µg/kg |
| Cc1nc(Cl)ccc1C1CC2CCC1N2 (stereo not drawn) | 1% | 14% | 0% | 256 nM |  | AD50 (Mus musculus [1]): 9000 µg/kg; inhibition in vivo at 15 mg/kg (Mus musculus [15]): 10%; Activity (Mus musculus [16]): 0% |
| Clc1ccc2c(n1)CN1C3CCC1C2C3 (stereo not drawn) | 3% | 17% | 0% |  |  |  |
